{"source": "patent US20210008083A1", "about": "“USE OF A BISPHOSPHONATE SALT IN A MEDICAMENT FOR A NATURALLY OCCURRING DISEASE/DISORDER IN A MAMMAL” (Ostafit B.V., priority 2016, published 2021)", "key": {"[1]": {"tested_on": "various disorders and disease", "assay": "Present bisphosphonates tested on various naturally occurring disorders and diseases in mammals", "design": "species or system mammals (horses, donkeys, cows, dogs and cats)", "settings": "dog, in vivo", "excerpt": "A repetition may be given after 4-12 months. […] In general it is noted that timing of potential benefit of antiresorptives in OA might be important. The greatest benefit in the prior art is typically seen very early in the disease. So to maintain the normal attitude mode, typically once per 1-12 month, preferably once per 2-6 months, such as once per 3-5 month, or put different 1-6 times per year, preferably 2-6 times per year, such as 3-4 times per year.\nFor better understanding of these diseases and disorders, the following section is added, such as to categorize these.\n(§1) Typical symptoms for dogs and other animals mentioned in the description are lameness, stiffness, especially in the morning, after a stroll and when starting, moving with relatively short steps, a preference for lying down, no stamina, various difficulties/limitations, such as in rising or lying down, in keeping up walking pace, rising a leg, jumping on a couch, tail between the legs and squealing from pain."}, "[2]": {"tested_on": "osteoarthritis or similar complaints", "description": "(§2) The following experiments were performed during November 2015-May 2016. In various veterinarian locations in the Netherlands the animals were treated or occasionally the animals were treated on a farm in a stable.\nFor cats it is preferred to provide the dosage in a subcutaneous manner."}, "[3]": {"tested_on": "hip osteoarthritis", "settings": "oral 35 mg once a week, 2 years; cited from earlier work"}, "[4]": {"tested_on": "osteoarthritis in the SI joint", "settings": "one donkey, treated in line with the horses", "description": "as §2\nOne donkey was treated in line with the horses above."}, "[5]": {"tested_on": "osteoarthritis or similar complaints", "settings": "24 dogs, 5-15 years, 0.20 mg/kg intravenous during about 15 min", "description": "as §2, §1"}, "[6]": {"tested_on": "primary osteoarthritis", "settings": "guinea pig model of primary osteoarthritis; cited from earlier work"}, "[7]": {"tested_on": "osteoarthritis", "settings": "1 bull, 6 years, 0.2 mg/kg intravenous", "description": "as §2"}, "[8]": {"tested_on": "knee osteoarthritis", "settings": "2-year period; cited from earlier work"}}, "data": [{"smiles": "CCCCCN(C)CCC(O)(P(=O)(O)O)P(=O)(O)O", "note": "[Ibandronate]", "values": [{"measurement": "outcome of testing on various disorders and disease", "setting": "[1]", "value": "tested on various disorders and disease with success"}]}, {"smiles": "CN(C)CCC(O)(P(=O)(O)O)P(=O)(O)O", "note": "[Olpadronate]", "values": [{"measurement": "outcome of testing on various disorders and disease", "setting": "[1]", "value": "tested on various disorders and disease with success"}]}, {"smiles": "NCCC(O)(P(=O)(O)O)P(=O)(O)O", "note": "[Pamidronate]", "values": [{"measurement": "outcome of testing on various disorders and disease", "setting": "[1]", "value": "tested on various disorders and disease with success"}]}, {"smiles": "NCCCC(O)(P(=O)(O)O)P(=O)(O)O.O.O.O", "note": "[Alendronate, [4-amino-1-hydroxy-1-(hydroxy-oxido-phosphoryl)-butyl]phosphonic acid trihydrate]", "values": [{"measurement": "cats free of complaints", "setting": "[2]; eight cats, 12-18 years, 0.2 mg/kg subcutaneous or intravenous, one cat still had complaints (other medicines withdrawn)", "value": "Seven cats were free of complaints within a few weeks"}, {"measurement": "cats showing a good response (substantially free of complaints)", "setting": "[2]; later experiments on more cats", "value": "more than 75%"}, {"measurement": "clinical efficacy on pain", "setting": "[3]", "value": "had clinical efficacy of pain reduction"}, {"measurement": "effect on structural progression of hip osteoarthritis", "setting": "[3]", "value": "failed to show preventive effects for structural progression of hip osteoarthritis"}, {"measurement": "result of treatment in donkey", "setting": "[4]", "value": "results here were fine"}, {"measurement": "complaints of dogs after treatment", "setting": "[5]", "value": "All dogs have significantly less complaints or were free of complaints within a few weeks"}, {"measurement": "effect on disease progression", "setting": "[6]", "value": "Risedronate but not Alendronate slows disease progression"}, {"measurement": "bull free of complaints", "setting": "[7]", "value": "free of complaints within a month"}, {"measurement": "outcome of testing on various disorders and disease", "setting": "[1]", "value": "tested on various disorders and disease with success"}]}, {"smiles": "O=P(O)(O)C(O)(Cc1cccnc1)P(=O)(O)O", "note": "[Risedronate]", "values": [{"measurement": "effect on disease progression", "setting": "[6]", "value": "slows disease progression"}, {"measurement": "outcome of testing on various disorders and disease", "setting": "[1]", "value": "tested on various disorders and disease with success"}, {"measurement": "symptom improvement or progression of radiographic osteoarthritis vs placebo", "setting": "[8]", "value": "no significant differences in symptom improvement or progression of radiographic osteoarthritis"}]}, {"smiles": "O=P(O)(O)C(O)(Cn1ccnc1)P(=O)(O)O", "note": "[Zoledronate]", "values": [{"measurement": "outcome of testing on various disorders and disease", "setting": "[1]", "value": "tested on various disorders and disease with success"}]}, {"smiles": "NCCCCCC(O)(P(=O)(O)O)P(=O)(O)O", "note": "[Nerodronate]", "values": [{"measurement": "outcome of testing on various disorders and disease", "setting": "[1]", "value": "tested on various disorders and disease with success"}]}]}
